The results in this text go back to patent US20240067662A1, “KRAS INHIBITORS” (Bristol-Myers Squibb Company, priority 2022, published 2024).

Structures are written as SMILES.

Sequence of GMPPNP-loaded KRAS G12C (P01116 1-188 isoform P01116-2 G12C): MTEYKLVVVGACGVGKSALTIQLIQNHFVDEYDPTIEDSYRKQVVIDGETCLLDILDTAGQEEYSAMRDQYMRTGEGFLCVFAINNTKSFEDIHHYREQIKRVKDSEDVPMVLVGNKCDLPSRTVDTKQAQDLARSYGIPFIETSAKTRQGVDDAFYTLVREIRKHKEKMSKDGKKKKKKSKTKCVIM

In the assay the target is GMPPNP-loaded KRAS G12C (Homo sapiens, UniProt P01116, G12C). As to the kind of experiment: KRAS G12C RAF Disruption Assay (HTRF). Particulars: recombinant GMPPNP-loaded KRAS G12C (5 nM), 20 min with compound; GST-RAF1 RBD (9 nM); HTRF signal; read-out: KRASG12C RAF Disruption Assay (IC50). The assay is classed as biochemical. How it is done:
KRAS^G12C RAF Disruption Assay
This is a functional assay that measures activity of compounds against KRAS-G12C^(ON), i.e., the active form of KRAS G12C. Recombinant GMPPNP-loaded KRAS G12C (5 nM) was treated with compound at room temperature for 20 minutes in assay buffer (50 mM Tris pH 7.5, 100 mM NaCl, 1 mM MgCl2, 1 mM DTT, 100ug/ml BSA). Recombinant GST-RAF1 RBD (9 nM) was added, and the reaction mixture was incubated for 20 minutes. SA-Tb (0.25 nM) was added, and the reaction mixture was incubated for 3 hours. HTRF signal was measured (PerkinElmer Envision), the signal ratio (λem 520/λem 495) was calculated, and IC50 values were calculated from the dose-response curve.
Consider `C#Cc1cccc2cccc(-c3ncc4c(N(C)[C@@H]5CCN(C(=O)/C(F)=C/c6ccccn6)C5)nc(OC[C@@]56CCCN5C[C@H](F)C6)nc4c3F)c12` [Compound 115, (Z)-1-((R)-3-((7-(8-ethynylnaphthalen-1-yl)-8-fluoro-2-(((2R, 7aS)-2-fluorotetrahydro-1H-pyrrolizin-7a(5H)-yl)methoxy)pyrido[4,3-d]pyrimidin-4-yl)(methyl)amino)pyrrolidin-1-yl)-2-fluoro-3-(pyridin-2-yl)prop-2-en-1-one], for which the IC50 was found to be 14 nM. The result for `CN1CCC[C@H]1COc1nc(N2CCN(C(=O)/C(F)=C/c3nccs3)[C@@H](CC#N)C2)c2cnc(-c3cccc4ccc(F)cc34)c(F)c2n1` [Example 37, 2-((S)-1-((Z)-2-fluoro-3-(thiazol-2-yl)acryloyl)-4-(8-fluoro-7-(7-fluoronaphthalen-1-yl)-2-(((S)-1-methylpyrrolidin-2-yl)methoxy)pyrido[4,3-d]pyrimidin-4-yl)piperazin-2-yl)acetonitrile] reads 130 nM; that for `C#Cc1cccc2cccc(-c3ncc4c(N(C)C5CCN(C(=O)/C(F)=C/c6ccccn6)C5C)nc(OC[C@@]56CCCN5C[C@H](F)C6)nc4c3F)c12` (single isomer, unassigned) [Example 74 cis isomer 1], 1000 nM. For the compound `C#Cc1c(F)ccc2cc(O)cc(-c3ncc4c(N5CCN(C(=O)/C(F)=C/c6ccccn6)CC5)nc(OC[C@@]56CCCN5C[C@H](F)C6)nc4c3F)c12` [Example 27, (Z)-1-(4-(7-(8-ethynyl-7-fluoro-3-hydroxynaphthalen-1-yl)-8-fluoro-2-(((2R, 7aS)-2-fluorotetrahydro-1H-pyrrolizin-7a(5H)-yl)methoxy)pyrido[4,3-d]pyrimidin-4-yl)piperazin-1-yl)-2-fluoro-3-(pyridin-2-yl)prop-2-en-1-one], the IC50 worked out at 3 nM. Take `C#Cc1cccc2cccc(-c3ncc4c(N(C)C5CCN(C(=O)/C(F)=C/c6nccs6)C5C)nc(OC[C@@]56CCCN5C[C@H](F)C6)nc4c3F)c12` (single isomer, unassigned) [Example 73 cis isomer 1]: the 50% inhibitory concentration (IC50) stood at 110 nM. The result for `N#CC[C@H]1CN(c2nc(OC[C@@]34CCCN3C[C@H](F)C4)nc3c(F)c(-c4ccccc4C4CCC4)ncc23)CCN1C(=O)/C(F)=C/c1ccccn1` [Compound 81, 2-((2S)-4-(7-(2-cyclobutylphenyl)-8-fluoro-2-(((2R, 7aS)-2-fluorotetrahydro-1H-pyrrolizin-7a(5H)-yl)methoxy)pyrido[4,3-d]pyrimidin-4-yl)-1-((Z)-2-fluoro-3-(pyridin-2-yl)acryloyl)piperazin-2-yl)acetonitrile] reads 57 nM; that for `C#Cc1c(F)ccc2cccc(-c3ncc4c(N(C)[C@@H]5CCN(C(=O)/C(F)=C/c6ccccn6)C5)nc(OC[C@@]56CCCN5C[C@H](F)C6)nc4c3F)c12` [Compound 117, (Z)-1-((R)-3-((7-(8-ethynyl-7-fluoronaphthalen-1-yl)-8-fluoro-2-(((2R, 7aS)-2-fluorotetrahydro-IH-pyrrolizin-7a(5H)-yl)methoxy)pyrido[4,3-d]pyrimidin-4-yl)(methyl)amino)pyrrolidin-1-yl)-2-fluoro-3-(pyridin-2-yl)prop-2-en-1-one], 9 nM; that for `C#Cc1cccc2cccc(-c3ncc4c(N5CCN(C(=O)/C(F)=C/c6ncco6)CC5)nc(OC[C@@]56CCCN5C[C@H](F)C6)nc4c3F)c12` [Compound 124, (Z)-1-(4-(7-(8-ethynylnaphthalen-1-yl)-8-fluoro-2-(((2R, 7aS)-2-fluorotetrahydro-1H-pyrrolizin-7a(5H)-yl)methoxy)pyrido[4,3-d]pyrimidin-4-yl)piperazin-1-yl)-2-fluoro-3-(oxazol-2-yl)prop-2-en-1-one], 540 nM. On to `CN(c1nc(OC[C@@]23CCCN2C[C@H](F)C3)nc2c(F)c(-c3c(F)cc(F)c4sc(N)nc34)ncc12)[C@@H]1CCN(C(=O)/C(F)=C/c2ccccn2)C1` [Compound 119, (Z)-1-((3R)-3-((7-(2-amino-5,7-difluorobenzo[d]thiazol-4-yl)-8-fluoro-2-(((7aS)-2-fluorotetrahydro-1H-pyrrolizin-7a(5H)-yl)methoxy)pyrido[4,3-d]pyrimidin-4-yl)(methyl)amino)pyrrolidin-1-yl)-2-fluoro-3-(pyridin-2-yl)prop-2-en-1-one], for which the IC50 turned out to be 5 nM.

For `C#Cc1c(F)ccc2cc(O)cc(-c3ncc4c(N5C[C@H]6CC[C@@H](C5)N6C(=O)/C(F)=C/c5nnc(C)s5)nc(OC[C@@]56CCCN5C[C@H](F)C6)nc4c3F)c12` [Compound 14, (Z)-1-((1R, 5S)-3-(7-(8-ethynyl-7-fluoro-3-hydroxynaphthalen-1-yl)-8-fluoro-2-(((2R, 7aS)-2-fluorotetrahydro-1H-pyrrolizin-7a(5H)-yl)methoxy)pyrido[4,3-d]pyrimidin-4-yl)-3,8-diazabicyclo[3.2.1]octan-8-yl)-2-fluoro-3-(5-methyl-1,3,4-thiadiazol-2-yl)prop-2-en-1-one], the half-inhibitory concentration (IC50) was 22 nM.

Consider `Nc1nc2c(-c3ncc4c(N5CCN(C(=O)/C(F)=C/c6nccs6)CC5)nc(OC[C@@]56CCCN5C[C@H](F)C6)nc4c3F)c(F)cc(F)c2s1` [Example 67, (Z)-1-(4-(7-(2-amino-5,7-difluorobenzo[d]thiazol-4-yl)-8-fluoro-2-(((2R, 7aS)-2-fluorotetrahydro-1H-pyrrolizin-7a(5H)-yl)methoxy)pyrido[4,3-d]pyrimidin-4-yl)piperazin-1-yl)-2-fluoro-3-(thiazol-2-yl)prop-2-en-1-one], for which the IC50 is 41 nM. Then `C#Cc1ccc(F)c2cccc(-c3ncc4c(N5CCN(C(=O)/C(F)=C/c6ccccn6)CC5)nc(OC[C@@]56CCCN5C[C@H](F)C6)nc4c3F)c12` [Compound 96, (Z)-1-(4-(7-(8-ethynyl-5-fluoronaphthalen-1-yl)-8-fluoro-2-(((2R, 7aS)-2-fluorotetrahydro-1H-pyrrolizin-7a(5H)-yl)methoxy)pyrido[4,3-d]pyrimidin-4-yl)piperazin-1-yl)-2-fluoro-3-(pyridin-2-yl)prop-2-en-1-one], with 110 nM; and `N#Cc1cccc2cccc(-c3ncc4c(N5CCN(C(=O)/C(F)=C/c6ccccn6)CC5)nc(OC[C@@]56CCCN5C[C@H](F)C6)nc4c3F)c12` [Example 49, 8-(8-fluoro-4-(4-((Z)-2-fluoro-3-(pyridin-2-yl)acryloyl)piperazin-1-yl)-2-(((2R, 7aS)-2-fluorotetrahydro-1H-pyrrolizin-7a(5H)-yl)methoxy)pyrido[4,3-d]pyrimidin-7yl)-1-naphthonitrile], with 800 nM. Then `C#Cc1cccc2cccc(-c3ncc4c(N5CCCN(C(=O)/C(F)=C/c6ccccn6)CC5)nc(OC[C@@]56CCCN5C[C@H](F)C6)nc4c3F)c12` [Example 77, (Z)-1-(4-(7-(8-ethynylnaphthalen-1-yl)-8-fluoro-2-(((2R, 7aS)-2-fluorotetrahydro-1H-pyrrolizin-7a(5H)-yl)methoxy)pyrido[4,3-d]pyrimidin-4-yl)-1,4-diazepan-1-yl)-2-fluoro-3-(pyridin-2-yl)prop-2-en-1-one], with 120 nM; and `N#Cc1c(N)sc2c(F)ccc(-c3ncc4c(N5CCN(C(=O)/C(F)=C/c6ccccn6)CC5)nc(OC[C@@]56CCCN5C[C@H](F)C6)nc4c3F)c12` [Compound 121, 2-amino-7-fluoro-4-(8-fluoro-4-(4-((Z)-2-fluoro-3-(pyridin-2-yl)acryloyl)piperazin-1-yl)-2-(((7aS)-2-fluorotetrahydro-1H-pyrrolizin-7a(5H)-yl)methoxy)pyrido[4,3-d]pyrimidin-7-yl)benzo[b]thiophene-3-carbonitrile], with 8 nM. Turning to `N#CC[C@H]1CN(c2nc(OC[C@@]34CCCN3C[C@H](F)C4)nc3c(F)c(-c4ccccc4C4CC4)ncc23)CCN1C(=O)/C(F)=C/c1nccs1` [Compound 80, 2-((2S)-4-(7-(2-cyclopropylphenyl)-8-fluoro-2-(((2R, 7aS)-2-fluorotetrahydro-1H-pyrrolizin-7a(5H)-yl)methoxy)pyrido[4,3-d]pyrimidin-4-yl)-1-((Z)-2-fluoro-3-(thiazol-2-yl)acryloyl)piperazin-2-yl)acetonitrile], the half-inhibitory concentration (IC50) was determined as 30 nM.

As for `C#Cc1c(F)ccc2cc(O)cc(-c3ncc4c(N5C[C@H]6CC[C@@H](C5)N6C(=O)/C(F)=C/c5cnccn5)nc(OC[C@@]56CCCN5C[C@H](F)C6)nc4c3F)c12` [Compound 16, (Z)-1-((1R, 5S)-3-(7-(8-ethynyl-7-fluoro-3-hydroxynaphthalen-1-yl)-8-fluoro-2-(((2R, 7aS)-2-fluorotetrahydro-1H-pyrrolizin-7a(5H)-yl)methoxy)pyrido[4,3-d]pyrimidin-4-yl)-3,8-diazabicyclo[3.2.1]octan-8-yl)-2-fluoro-3-(pyrazin-2-yl)prop-2-en-1-one], the half-maximal inhibitory concentration (IC50) amounted to 180 nM. The result for `N#Cc1cccc2[nH]cc(-c3ncc4c(N5CCN(C(=O)/C(F)=C/c6nccs6)CC5)nc(OC[C@@]56CCCN5C[C@H](F)C6)nc4c3F)c12` [Compound 134, 3-(8-fluoro-4-(4-((Z)-2-fluoro-3-(thiazol-2-yl)acryloyl)piperazin-1-yl)-2-(((2R, 7aS)-2-fluorotetrahydro-1H-pyrrolizin-7a(5H)-yl)methoxy)pyrido[4,3-d]pyrimidin-7-yl)-1H-indole-4-carbonitrile] reads 970 nM.
